According to ChEMBL document CHEMBL5728747, “Benzimidazoles and indoles as taro inhibitors” (2021):
Where “and” joins values, the source holds several entries; their conditions need not be identical. Equal entries are not always repeated.

Assay: TarO Biochemical Enzymatic Assay: The TarO biochemical enzymatic assay is a liquid chromatography-mass spectroscopy (LC-MS) based end point assay that measures C55-P-P-GlcNAc (LIPID III) production. The TarO biochemical enzymatic assay was performed in a 384-well microtiter plate (Labcyte) with a reaction volume of 20 μl. The reaction mix contained 0.1 μgs/μl of TarO membrane preparation derived from MRSA COL (lysostaphin/lysozyme treated, centrifuged at 40K rpm, and re-suspended in 50 mM Tris pH 7.5, 10 mM MgCl2), 1500 μM UDP-GlcNAc, ×75 μM C55-P substrates in 83 mM Tris pH 8.0, 6.7 mM MgCl2, 6 mM CHAPS, and 8.3% DMSO buffer. The enzyme reactions were quenched by extraction in 40 μl of 1-pentanol containing 0.04 μM 15C C55-PP-GlcNAc, which was used as an internal standard. A 10 μl volume of the quenched reaction mixture (pH≈3) from each well was injected onto a reversed-phase column (C4, 5 μm, 2.1×50 mm, Thermo Scientific Biobacis-4) and eluted using a NH4Ac/H2O/MeOH gradient (solvent A: 10 mM NH4Ac in water, pH 5.6; solvent B: NH4Ac (1 M)-Isopropanol (1:90, v/v, pH 5.6). The HPLC conditions were as follows: 15% solvent B for 15 seconds followed by a gradient to 90% solvent B in 90 seconds; then solvent B was kept at 95% for 10 seconds followed by a gradient to 8% solvent B in 0.1 minute. The column was then equilibrated at 15% B for 1 minute before the next injection. The flow rate was kept constant at 600 μl/minute. Mass spectrometric detection was carried out in the negative-ion mode using selected reaction monitoring (SRM). Typical mass spectrometric conditions were as follows: heated capillary temperature, 210° C.; spray voltage, 2500 V; desolvation gas (N2), 40 l/h; auxiliary gas (N2), 35 l/h. Selected ion current (SIC) chromatograms of C55-PP-GlcNAc and internal standard 15C C55-PP-GlcNAc were plotted and integrated using LCQuan incorporated in Xcalibur software (ThermoFinnigan). The linearity of C55-PP-GlcNAc concentration versus mass spectrometric signal (AC55-PP-GlcNAc/A15C-C55-PP-GlcNAc) was determined with purified C55-PP-GlcNAc. The IC50 values were calculated using the nonlinear regression analysis (sigmoidal dose response fit allowing for a variable slope) of percent inhibition data with minimum and maximum values set to 0 and 100 percent.

SMILES | IC50
CCN(C(=O)CCn1c(-c2ccc(C(=O)OC)cc2)nc2ccccc21)C1CCCCC1 | 130 nM
CCN(C(=O)CCn1c2cc(CO)ccc2nc1[C@H]1CC[C@H](CC)CC1)C1CCCCC1 | 120 nM
CCN(C(=O)CCn1c2ccc(F)cc2nc1[C@H]1CC[C@H](CC)CC1)C1CCCCC1 | 40 nM
CCN(C(=O)CCn1c(C2CCCN(C(=O)OC(C)(C)C)C2)nc2cc(F)ccc21)C1CCCCC1 (centres undefined) | 60 nM and 120 nM
CCN(C(=O)CCn1c2cccc(F)c2nc1[C@H]1CC[C@H](CC)CC1)C1CCCCC1 | 30 nM
CCN(C(=O)CCn1c(N2CCC(C)CC2)nc2ccccc21)C1CCCCC1 | 210 nM
CCN(C(=O)CCn1c2ccc(Br)cc2nc1[C@H]1CC[C@H](CC)CC1)C1CCCCC1 | 10 nM
CCN(C(=O)CCn1c2c(F)cccc2nc1[C@H]1CC[C@H](CC)CC1)C1CCCCC1 | 40 nM
CCN(C(=O)CCn1c2cc(-c3cnn(C)c3)ccc2nc1[C@H]1CC[C@H](CC)CC1)C1CCCCC1 | 50 nM
CCN(C(=O)CCn1c2cc(Br)ccc2nc1[C@H]1CC[C@H](CC)CC1)C1CCCCC1 | 30 nM
CCN(C(=O)CCn1c(-c2ccc(OCC(F)(F)F)cc2)nc2ccccc21)C1CCCCC1 | 40 nM
CCN(C(=O)CCn1c(C2CCCCC2)nc2ccccc21)C1CCCCC1 | 70 nM
CCN(C(=O)CCn1c2cc(F)ccc2nc1[C@H]1CC[C@H](CC)CC1)C1CCCCC1 | 20 nM
CCOC(=O)N1CCCC(c2nc3cc(F)ccc3n2CCC(=O)N(CC)C2CCCCC2)C1 (centres undefined) | 110 nM and 290 nM
CN(C(=O)CCn1c(C2CCCCC2)nc2ccccc21)C1CCCCC1 | 280 nM
CCN(C(=O)CCn1c(N2CCC(C(C)(C)C)CC2)nc2ccccc21)C1CCCCC1 | 10 nM
CCN(C(=O)CCn1c(-c2ccc(-n3ccnn3)cc2)nc2ccccc21)C1CCCCC1 | 3770 nM
CC1(C)[C@@H]2CC[C@@]1(C)[C@H](NC(=O)CCn1c(C3CCCCC3)nc3ccccc31)C2 | 200 nM
CCN(C(=O)CCn1c2cccc(C[C@H]3CCOC3)c2nc1[C@H]1CC[C@H](CC)CC1)C1CCCCC1 | 520 nM
CCN(C(=O)CCn1c(N2CCC(F)(F)CC2)nc2ccccc21)C1CCCCC1 | 220 nM

SMILES | IC50
CCN(C(=O)CCn1c2ccc(OC)cc2nc1[C@H]1CC[C@H](CC)CC1)C1CCCCC1 | 150 nM
CCN(C(=O)CCn1c2ncccc2nc1[C@H]1CC[C@H](CC)CC1)C1CCCCC1 | 300 nM
CCN(C(=O)CCn1c2cccc(N3CCOCC3)c2nc1[C@H]1CC[C@H](CC)CC1)C1CCCCC1 | 3440 nM
CCc1nsc(N2CCCC(c3nc4ccccc4n3CCC(=O)N(CC)C3CCCCC3)C2)n1 (centres undefined) | 80 nM
CCCOC(=O)N1CCCC(c2nc3ccccc3n2CCC(=O)N(CC)C2CCCCC2)C1 (centres undefined) | 150 nM
CCN(C(=O)CCn1c2cc(C[C@H]3CCOC3)ccc2nc1[C@H]1CC[C@H](CC)CC1)C1CCCCC1 | 380 nM
CCN(C(=O)CCn1c2ccncc2nc1[C@H]1CC[C@H](CC)CC1)C1CCCCC1 | 150 nM
CCN(C(=O)CCn1c2cc(CN)ccc2nc1[C@H]1CC[C@H](CC)CC1)C1CCCCC1 | 7320 nM
CC(C)(C)OC(=O)NCC1CCC(c2nc3ccccc3n2CCC(=O)NC2C[C@H]3CC[C@]2(C)C3(C)C)CC1 (some centres undefined) | 1350 nM
CCOc1ccc(-c2nc3ccccc3n2CCC(=O)N(CC)C2CCCCC2)cn1 | 240 nM
CCN(C(=O)CCn1c(C2CCCN(C(=O)OC(C)C)C2)nc2ccccc21)C1CCCCC1 (centres undefined) | 260 nM
CCCCOC(=O)N1CCCC(c2nc3ccccc3n2CCC(=O)N(CC)C2CCCCC2)C1 (centres undefined) | 70 nM
CCOC(=O)N1CCCC(c2nc3ccc(F)cc3n2CCC(=O)N(CC)C2CCCCC2)C1 (centres undefined) | 1090 nM
CCN(C(=O)CCn1c2cc(C#N)ccc2nc1[C@H]1CC[C@H](CC)CC1)C1CCCCC1 | 790 nM
CCN(C(=O)CCn1c(CN2CCC(C(C)(C)C)CC2)nc2ccccc21)C1CCCCC1 | 100 nM
CCN(C(=O)CCn1c(C2CCC(C)N(c3cccc(OC)n3)C2)nc2ccccc21)C1CCCCC1 (centres undefined) | 20 nM
CC1CCN(C(=O)CCn2c(C3CCCCC3)nc3ccccc32)CC1 | 2340 nM
CCC1CCN(Cc2nc3cc(C)ccc3n2CCC(=O)N(CC)C2CCCCC2)CC1 | 1050 nM
CCC1CCN(Cc2nc3ccccc3n2CCC(=O)N(CC)C2CCCCC2)CC1 | 210 nM
CCN(C(=O)CCn1c(C2CCCN(c3nccc(OC)n3)C2)nc2ccccc21)C1CCCCC1 (centres undefined) | 80 nM

SMILES | IC50
CCN(C(=O)CCn1c2ccc(C#N)cc2nc1[C@H]1CC[C@H](CC)CC1)C1CCCCC1 | 420 nM
CCN(C(=O)CCn1c2cnccc2nc1[C@H]1CC[C@H](CC)CC1)C1CCCCC1 | 840 nM
CCN(C(=O)CCn1c(C2CCC(C)N(c3nccc(OC)n3)C2)nc2ccccc21)C1CCCCC1 (centres undefined) | 140 nM
CCN(C(=O)CCn1c2cc(CN3CC(F)(F)C3)ccc2nc1[C@H]1CC[C@H](CC)CC1)C1CCCCC1 | 1770 nM
CCN(C(=O)CCn1c2ccc(C(F)(F)F)cc2nc1[C@H]1CC[C@H](CC)CC1)C1CCCCC1 | 10 nM
CCN(C(=O)CCn1c2cccc(C(F)F)c2nc1[C@H]1CC[C@H](C)CC1)C1CCCCC1 | 360 nM
CCN(C(=O)CCn1c(C2CCCN(c3cccc(OC)n3)C2)nc2ccccc21)C1CCCCC1 (centres undefined) | 10 nM
CCN(C(=O)CCn1c(C2CCN(C(=O)OC(C)(C)C)C2)nc2cc(F)ccc21)C1CCCCC1 (centres undefined) | 400 nM
CCN(C(=O)CCn1c(N2CCC(C(F)F)CC2)nc2ccccc21)C1CCCCC1 | 170 nM
CCN(C(=O)CCn1c2cc(CN3CCN(CC(F)(F)F)CC3)ccc2nc1[C@H]1CC[C@H](CC)CC1)C1CCCCC1 | 1480 nM
CCN(C(=O)CCn1c2cccnc2nc1[C@H]1CC[C@H](CC)CC1)C1CCCCC1 | 660 nM
CCN(C(=O)CCn1c2ccc(CO)cc2nc1[C@H]1CC[C@H](CC)CC1)C1CCCCC1 | 770 nM
CCCOC(=O)N1CC(c2nc3ccccc3n2CCC(=O)N(CC)C2CCCCC2)CCC1C (centres undefined) | 110 nM
CCN(C(=O)CCn1c(C2CCCN(c3ccccn3)C2)nc2ccccc21)C1CCCCC1 (centres undefined) | 90 nM
CCN(C(=O)CCn1c(N2CCC[C@H](NC(=O)OC(C)(C)C)C2)nc2ccccc21)C1CCCCC1 | 7990 nM
CC(C)(C)OC(=O)N1CCC(c2nc3ccccc3n2CCC(=O)NC2C[C@H]3CC[C@]2(C)C3(C)C)C1 (some centres undefined) | 3400 nM
CCN(C(=O)CCn1c2ccc(C3CC3)cc2nc1[C@H]1CC[C@H](CC)CC1)C1CCCCC1 | 130 nM
CCN(C(=O)CCn1c(C2CCCN(c3nccc(C)n3)C2)nc2ccccc21)C1CCCCC1 (centres undefined) | 230 nM
CC1(C)[C@@H]2CC[C@@]1(C)[C@H](NC(=O)CCn1c3ccccc3nc1[C@H]1CC[C@@H](C(C)(C)C)CC1)C2 | 60 nM
